SMILES strings stand for the structures.

The assay addresses T1, HCV-NS5b (Hepatitis C virus genotype 1b, UniProt Q9WMX2).
T1 construct: (His)6 (C); made in house; host or cells: XL-1 cells (E. coli), IPTG-inducible plasmid, nickel-NTA purification
Put plainly: HCV-NS5b enzyme assay (incorporation of radiolabeled UTP). In kind it is biochemical. The conditions noted are these: for inhibition at 33 µM: enzyme inhibition at compound concentration of 33 uM; for inhibition at 100 µM: read-out: % inh@100, enzyme inhibition at compound concentration of 100 uM. An outline of the steps:
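Percent inhibition, background-corrected against uninhibited control, was measured at 100 and 33 uM compound. Incorporation of [3H]-UTP (10 μM each NTP) into biotinylated HCV-template RNA, 37° C for 2 h, pH 7.5, scintillation proximity. Enzyme: C-terminally truncated (21 aa), His6-tagged NS5b from XL-1.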

Turning to `O=C(O)COc1ccc(-c2ccc(Cl)cc2)c(-c2ccc3cc(-c4nc5cc(C(=O)O)ccc5n4C4CCCCC4)ccc3n2)c1` [Compound 393, 2-[2-(4-Carboxymethoxy-4′-chloro-biphen-2-yl)-quinolin-6-yl]-1-cyclohexyl-1H-benzoimidazole-5-carboxylic acid], the inhibition at 33 µM amounted to 97.6% and the inhibition at 100 µM amounted to 96.9%.
`COc1cc(Br)c2oc(-c3ccc4cc(-c5nc6cc(C(=O)O)ccc6n5C5CCCCC5)ccc4n3)cc2c1` [Compound 394, 2-[2-(7-bromo-5-methoxy-benzofuran-2-yl)-quinolin-6-yl]-1-cyclohexyl-1H-benzoimidazole-5-carboxylic acid]: the inhibition at 33 µM amounted to 98.9% and the inhibition at 100 µM is 100%.
Consider `O=C(O)c1ccc2c(c1)nc(-c1ccc3nc(-c4ccccc4-c4ccccc4)ccc3c1)n2C1CCCCC1` [Compound 395, 2-(2-biphen-2-yl-quinolin-6-yl)-1-cyclohexyl-1H-benzoimidazole-5-carboxylic acid], for which the inhibition at 33 µM is 100% and the inhibition at 100 µM amounted to 101%.
With `Cc1onc(-c2ccc(Cl)cc2)c1-c1ccc2cc(-c3nc4cc(C(=O)O)ccc4n3C3CCCCC3)ccc2n1` [Compound 396, 2-{2-[3-(4-chloro-phenyl)-5-methyl-isoxazol-4-yl]-quinolin-6-yl}-1-cyclohexyl-1H-benzoimidazole-5-carboxylic acid], the inhibition at 33 µM amounted to 100% and the inhibition at 100 µM was 100%.
With `Cc1cc(-c2nc3cc(C(=O)O)ccc3n2C2CCCCC2)cc2ccc(-c3ccccc3)nc12` [Compound 397, 1-Cyclohexyl-2-(8-methyl-2-phenyl-quinolin-6-yl)-1H-benzoimidazole-5-carboxylic acid], the inhibition at 33 µM is 95.6% and the inhibition at 100 µM is 99.3%.
As for `O=C(O)c1ccc2c(c1)nc(-c1ccc3nc(-c4ccccc4)cc(NCCCCO)c3c1)n2C1CCCCC1` [Compound 398, 1-cyclohexyl-2-[4-(4-hydroxy-butylamino)-2-phenyl-quinolin-6-yl]-1H-benzoimidazole-5-carboxylic acid], the inhibition at 33 µM amounted to 59.6% and the inhibition at 100 µM turned out to be 92%.
For `CC(C)(C)OC(=O)NCCNc1cc(-c2ccccc2)nc2ccc(-c3nc4cc(C(=O)O)ccc4n3C3CCCCC3)cc12` [Compound 399, 2-[4-(2-tert-butoxycarbonylamino-ethylamino)-2-phenyl-quinolin-6-yl]-1-cyclohexyl-1H-benzoimidazole-5-carboxylic acid], the inhibition at 33 µM was 95.6% and the inhibition at 100 µM came out at 102%.
As to `COc1ccc(-c2ccc(N(C)C)cc2)c(-c2ccc3cc(-c4nc5cc(C(=O)O)ccc5n4C4CCCCC4)ccc3n2)c1` [Compound 401, 1-cyclohexyl-2-[2-(4′-dimethylamino-4-methoxy-biphen-2-yl)-quinolin-6-yl]-1H-benzoimidazole-5-carboxylic acid], the inhibition at 33 µM came to 100% and the inhibition at 100 µM worked out at 101%.
Turning to `COc1ccc(-c2ccc(Cl)c(Cl)c2)c(-c2ccc3cc(-c4nc5cc(C(=O)O)ccc5n4C4CCCCC4)ccc3n2)c1` [Compound 403, 1-cyclohexyl-2-[2-(3′,4′-dichloro-4-methoxy-biphen-2-yl)-quinolin-6-yl]-1H-benzoimidazole-5-carboxylic acid], the inhibition at 33 µM was found to be 99.4% and the inhibition at 100 µM was 99.9%.
As to `CCOc1ccc([N+](=O)[O-])cc1-c1ccc2cc(-c3nc4cc(C(=O)O)ccc4n3C3CCCCC3)ccc2n1` [Compound 404, 1-cyclohexyl-2-[2-(2-ethoxy-5-nitro-phenyl)-quinolin-6-yl]-1H-benzoimidazole-5-carboxylic acid], the inhibition at 33 µM was determined as 102% and the inhibition at 100 µM came to 101%.
As to `O=C(O)c1ccc2c(c1)nc(-c1ccc3ccc(-c4ccccc4)nc3c1)n2C1CCCCC1` [Compound 405, 1-Cyclohexyl-2-(2-phenyl-quinolin-7-yl)-1H-benzoimidazole-5-carboxylic acid], the inhibition at 33 µM amounted to 90.5% and the inhibition at 100 µM worked out at 98.9%.
In the case of `O=C(O)c1ccc2c(c1)nc(-c1ccc3nc(-c4ccccc4)c(-c4ccccc4)nc3c1)n2C1CCCCC1` [Compound 406, 1-Cyclohexyl-2-(2,3-diphenylquinoxalin-6-yl)-1H-benzimidazole-5-carboxylic acid], the inhibition at 33 µM was found to be 97.3% and the inhibition at 100 µM worked out at 98.1%.
The corresponding values for `O=C(O)c1ccc2c(c1)nc(-c1cc3ccc(-c4ccccc4-c4ccc(Cl)cc4)nc3cc1F)n2C1CCCCC1` [Compound 408, 2-[2-(4′-Chloro-biphen-2-yl)-7-fluoro-quinolin-6-yl]-1-cyclohexyl-1H-benzoimidazole-5-carboxylic acid] are 99.3% and 98.9%.
As to `O=C(O)c1ccc2c(c1)nc(-c1ccc3nc(-c4ccc(F)cc4)c(-c4ccc(F)cc4)nc3c1)n2C1CCCCC1` [Compound 409, 2-[2,3-Bis-(4-fluorophenyl)quinoxalin-6-yl]-1-cyclohexyl-1H-benzimidazole-5-carboxylic acid], the inhibition at 33 µM is 97.9% and the inhibition at 100 µM is 99.9%.
For the compound `O=C(c1ccc2c(c1)nc(-c1cc3ccc(-c4ccccc4-c4ccccc4)nc3cc1F)n2C1CCCCC1)N1CCC(O)CC1` [Compound 410], the inhibition at 33 µM was 84.3% and the inhibition at 100 µM turned out to be 88.6%.
In the case of `O=C(O)c1ccc2c(c1)nc(-c1ccc3nc(-c4cc5cccc(O)c5o4)ccc3c1)n2C1CCCCC1` [Compound 411, 1-cyclohexyl-2-[2-(7-hydroxy-benzofuran-2-yl)-quinolin-6-yl]-1H-benzoimidazole-5-carboxylic acid], the inhibition at 33 µM worked out at 78.1% and the inhibition at 100 µM is 91.5%.
For the compound `O=C(O)c1ccc2c(c1)nc(-c1ccc3nc(-c4ccc5c(c4)OCO5)ccc3c1)n2C1CCCCC1` [Compound 412, 2-(2-benzo[1,3]dioxol-5-yl-quinolin-6-yl)-1-cyclohexyl-1H-benzoimidazole-5-carboxylic acid], the inhibition at 33 µM was 98.4% and the inhibition at 100 µM stood at 100%.
Regarding `O=C(O)c1ccc2c(c1)nc(-c1ccc3nc(-c4cc5ccccc5o4)ccc3c1)n2C1CCCCC1` [Compound 413, 2-(2-benzofuran-2-yl-quinolin-6-yl)-1-cyclohexyl-1H-benzoimidazole-5-carboxylic acid], the inhibition at 33 µM came out at 95.5% and the inhibition at 100 µM was determined as 100%.
Take `O=C(O)c1ccc2c(c1)nc(-c1ccc3nc(-c4cccc(OCCCN5CCCC5)c4)ccc3c1)n2C1CCCCC1` [Compound 414, 1-Cyclohexyl-2-{2-[3-(3-pyrrolidin-1-yl-propoxy)-phenyl]-quinolin-6-yl}-1H-benzoimidazole-5-carboxylic acid]: the inhibition at 33 µM is 93.4% and the inhibition at 100 µM is 96.8%.
On to `O=C(O)c1ccc(-c2ccc(Cl)cc2)c(-c2ccc3cc(-c4nc5cc(C(=O)O)ccc5n4C4CCCCC4)ccc3n2)c1` [Compound 415, 2-[2-(4-Carboxy-4′-chloro-biphen-2-yl)-quinolin-6-yl]-1-cyclohexyl-1H-benzoimidazole-5-carboxylic acid], for which the inhibition at 33 µM came to 101% and the inhibition at 100 µM worked out at 102%.
In the same order, the values of `Cc1nc(-c2ccc(Cl)cc2)sc1-c1ccc2cc(-c3nc4cc(C(=O)O)ccc4n3C3CCCCC3)ccc2n1` [Compound 416, 2-{2-[2-(4-chloro-phenyl)-4-methyl-thiazol-5-yl]-quinolin-6-yl}-1-cyclohexyl-1H-benzoimidazole-5-carboxylic acid] are 101% and 103%.
Take `Cc1cc(-c2nc3cc(C(=O)O)ccc3n2C2CCCCC2)cc2ccc(-c3ccccc3-c3ccc(Cl)cc3)nc12` [Compound 417, 2-[2-(4′-Chloro-biphen-2-yl)-8-methyl-quinolin-6-yl]-1-cyclohexyl-1H-benzoimidazole-5-carboxylic acid]: the inhibition at 33 µM stood at 97.8% and the inhibition at 100 µM came out at 98%.
Turning to `Cc1cc(-c2ccc3cc(-c4nc5cc(C(=O)O)ccc5n4C4CCCCC4)ccc3n2)c(O)c([N+](=O)[O-])c1` [Compound 418, 1-cyclohexyl-2-[2-(2-hydroxy-5-methyl-3-nitro-phenyl)-quinolin-6-yl]-1H-benzoimidazole-5-carboxylic acid], the inhibition at 33 µM stood at 104% and the inhibition at 100 µM turned out to be 103%.
Take `COc1ccc(-c2ccc(C(=O)N3CCCC3)cc2-c2ccc3cc(-c4nc5cc(C(=O)O)ccc5n4C4CCCCC4)ccc3n2)cc1OC` [Compound 419, 1-Cyclohexyl-2-{2-[3′,4′-dimethoxy-4-(pyrrolidine-1-carbonyl)biphen-2-yl]quinolin-6-yl}-1H-benzimidazole-5-carboxylic acid]: the inhibition at 33 µM worked out at 101% and the inhibition at 100 µM worked out at 101%.
For `COc1ccc(-c2cccc([N+](=O)[O-])c2)c(-c2ccc3cc(-c4nc5cc(C(=O)O)ccc5n4C4CCCCC4)ccc3n2)c1` [Compound 420, 1-cyclohexyl-2-[2-(4-methoxy-3′-nitro-biphen-2-yl)-quinolin-6-yl]-1H-benzoimidazole-5-carboxylic acid], the inhibition at 33 µM was found to be 98.3% and the inhibition at 100 µM was 98.3%.
Consider `COc1ccc(-c2ccc(C(=O)O)cc2)c(-c2ccc3cc(-c4nc5cc(C(=O)O)ccc5n4C4CCCCC4)ccc3n2)c1` [Compound 421, 2-[2-(4′-carboxy-4-methoxy-biphen-2-yl)-quinolin-6-yl]-1-cyclohexyl-1H-benzoimidazole-5-carboxylic acid], for which the inhibition at 33 µM worked out at 100% and the inhibition at 100 µM is 100%.
For the compound `COc1ccc(-c2cccc(Cl)c2)c(-c2ccc3cc(-c4nc5cc(C(=O)O)ccc5n4C4CCCCC4)ccc3n2)c1` [Compound 422, 2-[2-(3′-chloro-4-methoxy-biphen-2-yl)-quinolin-6-yl]-1-cyclohexyl-1H-benzoimidazole-5-carboxylic acid], the inhibition at 33 µM turned out to be 98.8% and the inhibition at 100 µM is 99.2%.

Values taken from patent US7511145B2 (Genelabs Technologies, Inc., priority 2003, dated 2009).
